Data: ChEMBL document CHEMBL5241050, “Using membrane perturbing small molecules to target chronic persistent infections” (RSC Med Chem, 2021)
Converted amounts (≈) assume the structure as drawn.

Columns and labels:
Staphylococcus aureus [1] = experiment: Antibacterial activity against methicillin resistant Staphylococcus aureus ATCC 33591 assessed as inhibition of bacterial growth incubated for 24 hrs by broth microdilution method; assay type: functional
Staphylococcus aureus [2] = experiment: Antibacterial activity against methicillin resistant Staphylococcus aureus R3889 assessed as inhibition of bacterial growth incubated for 24 hrs by broth microdilution method; assay type: functional
Staphylococcus aureus [3] = experiment: Antibacterial activity against methicillin resistant Staphylococcus aureus R3890 assessed as inhibition of bacterial growth incubated for 24 hrs by broth microdilution method; assay type: functional
Pseudomonas aeruginosa [4] = experiment: Antibacterial activity against Pseudomonas aeruginosa assessed as inhibition of bacterial growth; assay type: functional
Staphylococcus aureus [5] = experiment: Antibacterial activity against Staphylococcus aureus assessed as inhibition of bacterial growth; assay type: functional
Staphylococcus aureus [6] = experiment: Antimicrobial activity against methicillin resistant Staphylococcus aureus MW2 BAA-1707 persisters assessed as inhibition of bacterial colonies; assay type: functional
[7] = Hemolytic activity in human erythrocytes assessed as hemolysis incubated for 1 hrs; assay type: toxicity, cell-based, Erythrocyte
Staphylococcus aureus [8] = experiment: Antimicrobial activity against methicillin resistant Staphylococcus aureus assessed as inhibition of bacterial growth by CLSI protocol based microdilution method; assay type: functional
Streptococcus mutans = experiment: Antibacterial activity against wild type planktonic Streptococcus mutans UA159 assessed as inhibition of bacterial growth incubated for 20 to 24 hrs; assay type: functional; settings: time 20-24 hrs
Pseudomonas aeruginosa [9] = experiment: Antibacterial activity against Pseudomonas aeruginosa persistent cells assessed as fold reduction in bacterial cell at 68 ug/ml in the presence of ofloxacin relative to ofloxacin alone; assay type: functional; settings: dose 68 µg/ml
Pseudomonas aeruginosa [10] = experiment: Antibacterial activity against Pseudomonas aeruginosa persistent cells assessed as fold reduction in bacterial cell in the presence of ofloxacin relative to ofloxacin alone; assay type: functional
Klebsiella pneumoniae = experiment: Antibacterial activity against Klebsiella pneumoniae assessed as inhibition of bacterial growth by microplate reader analysis; assay type: functional
Acinetobacter baumannii = experiment: Antibacterial activity against Acinetobacter baumannii assessed as inhibition of bacterial growth by microplate reader analysis; assay type: functional
Enterobacter sp. = experiment: Antibacterial activity against Enterobacter sp. assessed as inhibition of bacterial growth by microplate reader analysis; assay type: functional
Staphylococcus aureus [11] = experiment: Antibacterial activity against Staphylococcus aureus assessed as inhibition of bacterial growth by microplate reader analysis; assay type: functional
Pseudomonas aeruginosa [12] = experiment: Antibacterial activity against Pseudomonas aeruginosa assessed as inhibition of bacterial growth by microplate reader analysis; assay type: functional
Enterococcus faecium = experiment: Antibacterial activity against Enterococcus faecium assessed as inhibition of bacterial growth by microplate reader analysis; assay type: functional
Staphylococcus aureus [13] = experiment: Antimicrobial activity against vancomycin resistant Staphylococcus aureus assessed as inhibition of bacterial growth by CLSI protocol based microdilution method; assay type: functional
Staphylococcus aureus [14] = experiment: Antibacterial activity against Staphylococcus aureus ATCC 9144 assessed as inhibition of bacterial growth incubated for 24 hrs; assay type: functional
Staphylococcus aureus [15] = experiment: Antibacterial activity against methicillin resistant Staphylococcus aureus MW2 assessed as inhibition of bacterial growth measured after 2 hrs; assay type: functional
[16] = Cytotoxicity against human hepatocytes assessed as reduction in cell growth by WST-1 assay; assay type: toxicity, cell-based, Hepatocyte; settings: read-out: LC50 (the source's name)

CCCCCCCCCCN(Cc1cccc2ccccc12)C(=O)[C@@H](N)CCCCN
MIC (Staphylococcus aureus [1]): 4.1 µg/mL (≈ 9.63 µM)
MIC (Staphylococcus aureus [2]): 4.1 µg/mL (≈ 9.63 µM)
MIC (Staphylococcus aureus [3]): 4.1 µg/mL (≈ 9.63 µM)

CCC(C)NCC(O)Cn1c2ccc(Cl)cc2c2cc(Cl)ccc21 (configuration not stated)
MIC (Pseudomonas aeruginosa [4]): 4.63 µg/mL (≈ 12.7 µM)
MIC (Staphylococcus aureus [5]): 4.63 µg/mL (≈ 12.7 µM)

O=C(O)c1c(Sc2ccccc2)c2cc(Cl)ccc2n1Cc1ccc(Cl)cc1
Activity (Staphylococcus aureus [6]): 64 µg/mL
HC50 at 1 h [7]: 47 µg/mL
MIC (Staphylococcus aureus [8]): 4 µg/mL (≈ 9.34 µM)

CC(C)(C)c1ccc(CCc2ccc(C(C)(C)C)c(O)c2)cc1O
MIC (Streptococcus mutans): 0.65 µg/mL (≈ 1.99 µM)

O=C(O)c1c(Oc2ccc(I)cc2)c2cc(Cl)ccc2n1Cc1ccc(Cl)cc1
Activity (Staphylococcus aureus [6]): 16 µg/mL
HC50 at 1 h [7]: > 64 µg/mL
MIC (Staphylococcus aureus [8]): 1 µg/mL (≈ 1.86 µM)

O[C@H](CNCCc1ccc(Cl)cc1Cl)COc1ccccc1
fold change (FC) (Pseudomonas aeruginosa [9]): 7200

O[C@H](CNCc1ccccc1)COc1ccc(Cl)cc1Cl
fold change (FC) (Pseudomonas aeruginosa [10]): >2000

Nc1nc(N)c2c(ccc3c2ccn3Cc2ccc(-c3ccccc3)cc2)n1
MIC (Klebsiella pneumoniae): 0.02 µg/mL (≈ 0.0547 µM)
MIC (Acinetobacter baumannii): 0.02 µg/mL (≈ 0.0547 µM)
MIC (Enterobacter sp.): 0.02 µg/mL (≈ 0.0547 µM)
MIC (Staphylococcus aureus [11]): 0.02 µg/mL (≈ 0.0547 µM)
MIC (Pseudomonas aeruginosa [12]): 0.02 µg/mL (≈ 0.0547 µM)
MIC (Enterococcus faecium): 0.02 µg/mL (≈ 0.0547 µM)

CC(C)c1ccc(Cn2ccc3c4c(N)nc(NC5CC5)nc4ccc32)cc1
MIC (Klebsiella pneumoniae): 2 µg/mL (≈ 5.38 µM)
MIC (Acinetobacter baumannii): 2 µg/mL (≈ 5.38 µM)
MIC (Enterobacter sp.): 2 µg/mL (≈ 5.38 µM)
MIC (Staphylococcus aureus [11]): 2 µg/mL (≈ 5.38 µM)
MIC (Pseudomonas aeruginosa [12]): 2 µg/mL (≈ 5.38 µM)
MIC (Enterococcus faecium): 2 µg/mL (≈ 5.38 µM)

Oc1c(Cl)cc(Cl)cc1Sc1cc(Cl)cc(Cl)c1O [BITHIONOL]
MIC (Staphylococcus aureus [13]): 0.5 µg/mL (≈ 1.4 µM)
MIC50 (Staphylococcus aureus [14]): 8 µM (≈ 2.85 µg/mL)

C=CCc1ccc(O)c(-c2ccc(O)c(CC=C)c2)c1 [HONOKIOL]
MIC (Streptococcus mutans): 66.6 µg/mL (≈ 250 µM)

O=C(O)c1ccc2cc(-c3ccc(O)c(C45CC6CC(CC(C6)C4)C5)c3)ccc2c1 [O-DEMETHYLATED ADAPALENE]
MIC (Staphylococcus aureus [15]): 1 µg/mL (≈ 2.51 µM)
CC50 [16]: 20 µg/mL (≈ 50.2 µM)
HC50 at 1 h [7]: 32 µg/mL
